In paper PMC9898036, “VIP152 is a selective CDK9 inhibitor with pre-clinical in vitro and in vivo efficacy in chronic lymphocytic leukemia” (Leukemia, 2022):
Read-outs that look alike come from different tables or passages of the source.

Columns and labels:
Assay in all cases: DiscoverX KINOMEscan kinase profiling (468 assays)
Type in all cases: binding
[1] = target: human kinome (Homo sapiens, UniProt Q02779); details: MLK2 (Entrez MAP3K10); 100 nM; read-out: Percent Control
Procedure, shortened: (§1)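 DNA-tagged kinases competed for immobilized biotinylated ligands on streptavidin magnetic beads, with bound kinase quantified by qPCR. VIP152 in DMSO was tested against a DMSO control.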

[2] = target: human kinome (Homo sapiens, UniProt O75676); details: compound concentration 1000 nM, read-out: Percent Control
human kinome (Homo sapiens, UniProt O75676), sequence (O75676 whole entry): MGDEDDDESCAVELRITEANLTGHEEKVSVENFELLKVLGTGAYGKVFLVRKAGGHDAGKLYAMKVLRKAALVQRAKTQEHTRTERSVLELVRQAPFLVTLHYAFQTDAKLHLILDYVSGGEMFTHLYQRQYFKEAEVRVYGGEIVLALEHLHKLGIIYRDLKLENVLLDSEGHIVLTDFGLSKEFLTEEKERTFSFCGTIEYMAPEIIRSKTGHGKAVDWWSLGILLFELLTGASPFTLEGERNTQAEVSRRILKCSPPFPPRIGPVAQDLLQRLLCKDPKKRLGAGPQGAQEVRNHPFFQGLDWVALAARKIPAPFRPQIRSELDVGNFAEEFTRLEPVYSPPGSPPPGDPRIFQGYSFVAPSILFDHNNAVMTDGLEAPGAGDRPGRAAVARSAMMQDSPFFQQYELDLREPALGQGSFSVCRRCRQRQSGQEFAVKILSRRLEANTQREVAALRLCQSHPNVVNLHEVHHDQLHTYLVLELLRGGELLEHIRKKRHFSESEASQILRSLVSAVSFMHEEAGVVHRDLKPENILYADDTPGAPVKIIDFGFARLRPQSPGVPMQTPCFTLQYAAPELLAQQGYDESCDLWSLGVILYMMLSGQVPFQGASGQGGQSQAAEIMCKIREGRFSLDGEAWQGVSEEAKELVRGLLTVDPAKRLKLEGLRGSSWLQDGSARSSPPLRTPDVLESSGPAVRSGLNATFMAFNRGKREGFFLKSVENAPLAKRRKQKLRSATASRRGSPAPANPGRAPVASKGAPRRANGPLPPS
Procedure, shortened: as §1

[3] = target: human kinome (Homo sapiens, UniProt Q13188); details: MST2 (Entrez STK3); 100 nM; read-out: Percent Control
Procedure, shortened: as §1

[4] = target: human kinome (Homo sapiens, UniProt Q9Y6E0); details: MST3 (Entrez STK24); 100 nM; read-out: Percent Control
Procedure, shortened: as §1

[5] = target: human kinome (Homo sapiens, UniProt Q8TBX8); details: read-out: Percent Control
Procedure, shortened: as §1

[6] = target: human kinome (Homo sapiens, UniProt Q8IW41); details: MAPKAPK5; 100 nM; read-out: Percent Control
Procedure, shortened: as §1

[7] = target: human kinome (Homo sapiens, UniProt P53778); details: read-out: Percent Control
Procedure, shortened: as §1

[8] = target: human kinome (Homo sapiens, UniProt Q9H2X6); details: HIPK2; 100 nM; read-out: Percent Control
Procedure, shortened: as §1

[9] = target: human kinome (Homo sapiens, UniProt P42338); details: read-out: Percent Control
human kinome (Homo sapiens, UniProt P42338), sequence (P42338 whole entry): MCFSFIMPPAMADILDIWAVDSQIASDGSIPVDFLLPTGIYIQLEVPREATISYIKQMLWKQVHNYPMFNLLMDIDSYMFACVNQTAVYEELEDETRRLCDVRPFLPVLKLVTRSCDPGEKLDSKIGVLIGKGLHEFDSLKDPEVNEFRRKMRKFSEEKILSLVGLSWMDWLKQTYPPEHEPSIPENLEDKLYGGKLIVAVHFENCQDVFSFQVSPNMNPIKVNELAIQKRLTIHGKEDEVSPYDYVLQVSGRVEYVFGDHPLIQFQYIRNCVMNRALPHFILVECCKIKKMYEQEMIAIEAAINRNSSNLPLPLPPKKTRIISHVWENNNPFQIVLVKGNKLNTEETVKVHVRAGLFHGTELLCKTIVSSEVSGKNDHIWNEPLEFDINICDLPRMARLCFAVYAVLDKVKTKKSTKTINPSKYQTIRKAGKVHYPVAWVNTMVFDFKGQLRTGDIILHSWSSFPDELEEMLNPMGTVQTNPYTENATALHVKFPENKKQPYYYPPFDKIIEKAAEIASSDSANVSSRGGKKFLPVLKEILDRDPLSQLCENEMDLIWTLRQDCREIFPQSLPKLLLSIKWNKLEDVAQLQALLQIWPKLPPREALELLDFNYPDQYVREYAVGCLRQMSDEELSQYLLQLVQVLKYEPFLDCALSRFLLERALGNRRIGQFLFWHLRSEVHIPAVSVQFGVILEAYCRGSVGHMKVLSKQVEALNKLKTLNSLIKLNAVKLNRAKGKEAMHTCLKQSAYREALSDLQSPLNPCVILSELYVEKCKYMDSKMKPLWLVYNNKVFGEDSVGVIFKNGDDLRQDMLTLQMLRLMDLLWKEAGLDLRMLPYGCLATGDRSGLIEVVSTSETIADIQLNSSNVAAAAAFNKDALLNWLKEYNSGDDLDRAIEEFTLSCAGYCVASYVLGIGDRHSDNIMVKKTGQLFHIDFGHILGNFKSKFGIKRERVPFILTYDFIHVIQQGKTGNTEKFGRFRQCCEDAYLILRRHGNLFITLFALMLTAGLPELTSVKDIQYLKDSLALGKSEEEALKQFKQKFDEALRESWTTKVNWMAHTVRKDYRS
Procedure, shortened: as §1

[10] = target: human kinome (Homo sapiens, UniProt P68400); details: CSNK2A1; 100 nM; read-out: Percent Control
Procedure, shortened: as §1

[11] = target: human kinome (Homo sapiens, UniProt P42336, M1043I); details: read-out: Percent Control
human kinome (Homo sapiens, UniProt P42336, M1043I), sequence (P42336 whole entry M1043I): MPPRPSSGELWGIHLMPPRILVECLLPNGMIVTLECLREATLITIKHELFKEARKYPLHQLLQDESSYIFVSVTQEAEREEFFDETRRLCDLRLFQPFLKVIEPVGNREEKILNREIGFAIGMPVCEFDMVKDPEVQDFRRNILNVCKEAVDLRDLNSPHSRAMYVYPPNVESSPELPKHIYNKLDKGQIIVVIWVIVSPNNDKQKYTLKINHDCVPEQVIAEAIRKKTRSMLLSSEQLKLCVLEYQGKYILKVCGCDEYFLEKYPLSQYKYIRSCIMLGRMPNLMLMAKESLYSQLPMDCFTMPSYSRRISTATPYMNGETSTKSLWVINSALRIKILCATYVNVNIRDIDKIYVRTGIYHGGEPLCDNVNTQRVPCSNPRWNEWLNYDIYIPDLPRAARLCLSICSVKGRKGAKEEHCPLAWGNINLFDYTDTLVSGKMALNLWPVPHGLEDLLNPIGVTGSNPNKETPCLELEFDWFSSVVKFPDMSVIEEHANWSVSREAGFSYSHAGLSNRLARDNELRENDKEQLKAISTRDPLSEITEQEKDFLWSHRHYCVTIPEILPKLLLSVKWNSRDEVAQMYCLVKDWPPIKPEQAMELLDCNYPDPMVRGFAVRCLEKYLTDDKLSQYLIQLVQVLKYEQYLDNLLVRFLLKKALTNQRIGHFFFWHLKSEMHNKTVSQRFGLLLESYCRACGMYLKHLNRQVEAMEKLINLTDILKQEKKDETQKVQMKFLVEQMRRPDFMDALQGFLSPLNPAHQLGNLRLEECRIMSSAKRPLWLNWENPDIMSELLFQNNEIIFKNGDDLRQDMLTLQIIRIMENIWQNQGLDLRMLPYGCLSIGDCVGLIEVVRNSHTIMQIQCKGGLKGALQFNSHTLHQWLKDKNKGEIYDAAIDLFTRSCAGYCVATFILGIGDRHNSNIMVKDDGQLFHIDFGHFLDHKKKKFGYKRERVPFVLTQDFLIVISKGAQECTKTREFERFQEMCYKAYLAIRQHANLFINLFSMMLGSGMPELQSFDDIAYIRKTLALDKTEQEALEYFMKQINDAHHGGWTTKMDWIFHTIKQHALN
Procedure, shortened: as §1

[12] = target: human kinome (Homo sapiens, UniProt P11802); details: 100 nM, read-out: Percent Control
human kinome (Homo sapiens, UniProt P11802), sequence (P11802 whole entry): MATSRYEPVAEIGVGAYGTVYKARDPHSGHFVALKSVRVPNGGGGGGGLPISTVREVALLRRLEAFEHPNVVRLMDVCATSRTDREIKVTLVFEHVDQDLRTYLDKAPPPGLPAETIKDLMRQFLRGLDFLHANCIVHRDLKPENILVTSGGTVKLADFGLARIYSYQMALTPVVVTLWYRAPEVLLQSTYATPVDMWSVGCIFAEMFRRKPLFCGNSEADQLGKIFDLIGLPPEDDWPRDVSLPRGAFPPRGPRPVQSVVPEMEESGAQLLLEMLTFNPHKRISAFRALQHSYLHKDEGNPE
Procedure, shortened: as §1

[13] = target: human kinome (Homo sapiens, UniProt Q13873); details: BMPR2; 100 nM; read-out: Percent Control
Procedure, shortened: as §1

[14] = target: human kinome (Homo sapiens, UniProt P00533, L858R/T790M); details: EGFR(L858R,T790M); 100 nM; read-out: Percent Control
Procedure, shortened: as §1

[15] = target: human kinome (Homo sapiens, UniProt Q8TDR2); details: kinase STK35 (Entrez STK35); compound concentration 1000 nM; read-out: Percent Control
Procedure, shortened: as §1

[16] = target: human kinome (Homo sapiens, UniProt P48736); details: read-out: Percent Control
human kinome (Homo sapiens, UniProt P48736), sequence (P48736 whole entry): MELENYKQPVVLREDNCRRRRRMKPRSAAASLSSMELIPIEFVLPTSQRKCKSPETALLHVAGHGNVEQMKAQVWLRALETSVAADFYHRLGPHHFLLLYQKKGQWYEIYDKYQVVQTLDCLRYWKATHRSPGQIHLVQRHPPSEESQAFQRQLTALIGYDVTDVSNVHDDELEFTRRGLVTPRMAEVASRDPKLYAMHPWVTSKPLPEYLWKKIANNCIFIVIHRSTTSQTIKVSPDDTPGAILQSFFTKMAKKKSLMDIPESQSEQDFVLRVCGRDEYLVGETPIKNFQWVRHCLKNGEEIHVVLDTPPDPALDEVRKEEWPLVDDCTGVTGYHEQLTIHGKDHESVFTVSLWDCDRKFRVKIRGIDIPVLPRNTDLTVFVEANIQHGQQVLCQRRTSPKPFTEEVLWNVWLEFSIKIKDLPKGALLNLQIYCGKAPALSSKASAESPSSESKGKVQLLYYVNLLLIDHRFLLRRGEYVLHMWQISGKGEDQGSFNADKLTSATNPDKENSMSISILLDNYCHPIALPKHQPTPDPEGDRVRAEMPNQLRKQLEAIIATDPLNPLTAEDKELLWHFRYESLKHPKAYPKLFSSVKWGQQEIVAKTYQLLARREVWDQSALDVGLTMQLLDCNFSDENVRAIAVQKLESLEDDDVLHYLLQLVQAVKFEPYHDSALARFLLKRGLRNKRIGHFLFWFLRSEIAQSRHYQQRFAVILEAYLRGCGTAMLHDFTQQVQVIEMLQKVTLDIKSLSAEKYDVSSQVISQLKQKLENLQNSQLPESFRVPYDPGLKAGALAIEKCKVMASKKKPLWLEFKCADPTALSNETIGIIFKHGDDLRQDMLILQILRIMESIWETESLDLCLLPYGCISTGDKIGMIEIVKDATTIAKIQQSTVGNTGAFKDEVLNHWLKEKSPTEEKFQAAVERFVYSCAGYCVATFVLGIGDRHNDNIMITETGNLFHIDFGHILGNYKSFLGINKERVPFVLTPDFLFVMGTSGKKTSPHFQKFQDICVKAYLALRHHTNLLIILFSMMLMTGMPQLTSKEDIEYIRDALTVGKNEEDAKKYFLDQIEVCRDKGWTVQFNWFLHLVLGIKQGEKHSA
Procedure, shortened: as §1

[17] = target: human kinome (Homo sapiens, UniProt P12931); details: kinase SRC (Entrez SRC); compound concentration 1000 nM; read-out: Percent Control
Procedure, shortened: as §1

[18] = target: human kinome (Homo sapiens, UniProt P42336, E545K); details: read-out: Percent Control
human kinome (Homo sapiens, UniProt P42336, E545K), sequence (P42336 whole entry E545K): as the sequence (P42336 whole entry M1043I) above, with E545K, I1043M counted along it
Procedure, shortened: as §1

[19] = target: human kinome (Homo sapiens, UniProt Q16659); details: ERK3 (Entrez MAPK6); 100 nM; read-out: Percent Control
Procedure, shortened: as §1

[20] = target: human kinome (Homo sapiens, UniProt Q05397); details: FAK (Entrez PTK2); 100 nM; read-out: Percent Control
Procedure, shortened: as §1

[21] = target: human kinome (Homo sapiens, UniProt P15056); details: BRAF; 100 nM; read-out: Percent Control
Procedure, shortened: as §1

[22] = target: human kinome (Homo sapiens, UniProt Q9P2K8, S808G); details: GCN2(Kin.Dom.2,S808G) (Entrez EIF2AK4); 100 nM; read-out: Percent Control
Procedure, shortened: as §1

[23] = target: human kinome (Homo sapiens, UniProt Q9UIK4); details: DAPK2; 100 nM; read-out: Percent Control
Procedure, shortened: as §1

[24] = target: human kinome (Homo sapiens, UniProt P11362); details: FGFR1; 100 nM; read-out: Percent Control
Procedure, shortened: as §1

[25] = target: human kinome (Homo sapiens, UniProt Q92772); details: CDKL2; 100 nM; read-out: Percent Control
Procedure, shortened: as §1

[26] = target: human kinome (Homo sapiens, UniProt P10721, A829P); details: KIT(A829P); 100 nM; read-out: Percent Control
Procedure, shortened: as §1

[27] = target: human kinome (Homo sapiens, UniProt Q99755); details: read-out: Percent Control
human kinome (Homo sapiens, UniProt Q99755), sequence (Q99755 whole entry): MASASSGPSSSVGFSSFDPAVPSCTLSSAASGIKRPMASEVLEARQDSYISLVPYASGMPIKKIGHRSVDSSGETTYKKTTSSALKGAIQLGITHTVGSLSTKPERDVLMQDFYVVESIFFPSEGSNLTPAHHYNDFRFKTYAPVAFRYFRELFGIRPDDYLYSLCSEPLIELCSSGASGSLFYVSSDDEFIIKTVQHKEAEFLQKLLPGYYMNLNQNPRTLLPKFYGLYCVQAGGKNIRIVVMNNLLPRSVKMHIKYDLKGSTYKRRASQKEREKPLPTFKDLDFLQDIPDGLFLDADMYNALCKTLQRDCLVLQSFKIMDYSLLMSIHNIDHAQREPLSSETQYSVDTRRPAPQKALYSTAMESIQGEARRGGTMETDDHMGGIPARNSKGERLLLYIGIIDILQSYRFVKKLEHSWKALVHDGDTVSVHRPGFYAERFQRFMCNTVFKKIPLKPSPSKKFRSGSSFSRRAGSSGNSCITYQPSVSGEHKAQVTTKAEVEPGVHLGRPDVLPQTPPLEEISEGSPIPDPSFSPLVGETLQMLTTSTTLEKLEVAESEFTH
Procedure, shortened: as §1

[28] = target: human kinome (Homo sapiens, UniProt P35916); details: FLT4; 100 nM; read-out: Percent Control
Procedure, shortened: as §1

COc1cc(F)ccc1-c1cc(Nc2cc(CS(C)(=N)=O)ccn2)ncc1F (centres unmarked) [VIP152]
remaining binding at 0.1 µM [1]: 100% | remaining binding at 1 µM ([2]; kinase RPS6KA4(Kin.Dom.1-N-terminal) (Entrez RPS6KA4)): 85% | remaining binding at 1 µM ([2]; kinase RPS6KA4(Kin.Dom.2-C-terminal) (Entrez RPS6KA4)): 71% | remaining binding at 0.1 µM [3]: 99% | remaining binding at 0.1 µM [4]: 100% | remaining binding at 0.1 µM ([5]; PIP5K2C (Entrez PIP4K2C), 100 nM): 52% | remaining binding at 1 µM ([5]; kinase PIP5K2C (Entrez PIP4K2C), compound concentration 1000 nM): 82% | remaining binding at 0.1 µM [6]: 100% | remaining binding at 1 µM ([7]; kinase p38-gamma (Entrez MAPK12), compound concentration 1000 nM): 100% | remaining binding at 0.1 µM ([7]; p38-gamma (Entrez MAPK12), 100 nM): 76% | remaining binding at 0.1 µM [8]: 89% | remaining binding at 0.1 µM ([9]; PIK3CB, 100 nM): 100% | remaining binding at 1 µM ([9]; kinase PIK3CB (Entrez PIK3CB), compound concentration 1000 nM): 100% | remaining binding at 0.1 µM [10]: 100% | remaining binding at 0.1 µM ([11]; PIK3CA(M1043I), 100 nM): 100% | remaining binding at 1 µM ([11]; kinase PIK3CA(M1043I) (Entrez PIK3CA), compound concentration 1000 nM): 84% | remaining binding at 0.1 µM ([12]; CDK4-cyclinD1): 85% | remaining binding at 0.1 µM ([12]; CDK4-cyclinD3): 92% | remaining binding at 0.1 µM ([12]; CDK4): 100% | remaining binding at 0.1 µM [13]: 99% | remaining binding at 0.1 µM [14]: 93% | remaining binding at 1 µM [15]: 95% | remaining binding at 0.1 µM ([16]; PIK3CG, 100 nM): 100% | remaining binding at 1 µM ([16]; kinase PIK3CG (Entrez PIK3CG), compound concentration 1000 nM): 97% | remaining binding at 1 µM [17]: 83% | remaining binding at 0.1 µM ([18]; PIK3CA(E545K), 100 nM): 92% | remaining binding at 1 µM ([18]; kinase PIK3CA(E545K) (Entrez PIK3CA), compound concentration 1000 nM): 93% | remaining binding at 0.1 µM [19]: 100% | remaining binding at 0.1 µM [20]: 100% | remaining binding at 0.1 µM [21]: 100% | remaining binding at 0.1 µM [22]: 96% | remaining binding at 0.1 µM [23]: 100% | remaining binding at 0.1 µM [24]: 100% | remaining binding at 0.1 µM [25]: 100% | remaining binding at 0.1 µM [26]: 100% | remaining binding at 0.1 µM ([27]; PIP5K1A, 100 nM): 90% | remaining binding at 1 µM ([27]; kinase PIP5K1A (Entrez PIP5K1A), compound concentration 1000 nM): 18% | remaining binding at 0.1 µM [28]: 100%
